Assay results: patent US10821117B2, “Estrogen therapy for brain gray matter atrophy and associated disability” (The Regents of the University of California, priority 2014, dated 2020)

Test system: relapsing remitting multiple sclerosis patients
Assay: 7/24 Spatial Recall Test, proportion with perfect score
Assay type: in vivo, human
Procedure: The estriol and placebo subjects were administered the 7/24 Spatial Recall Test periodically throughout the study. A perfect score on the test is 7, and for both treatment groups, the median score was also 7. Therefore, performance was assessed by the proportion of subjects in each group who achieved a perfect score on the test. […] Logistic regression for repeated measurement was used to compare the probability having a perfect score between the two treatment groups, adjusting for age, education level, and baseline recall (Table 7).

glatiramer acetate [Placebo + GA]
Percentage of subjects achieving a perfect score on the 7/24 Spatial Recall Test (Month 3): 60.8 (45/74) % | Percentage of subjects achieving a perfect score on the 7/24 Spatial Recall Test (Month 6): 73.2 (52/71) % | Percentage of subjects achieving a perfect score on the 7/24 Spatial Recall Test (Month 12): 71.4 (45/63) % | Percentage of subjects achieving a perfect score on the 7/24 Spatial Recall Test (Month 18): 63.6 (35/55) % | Percentage of subjects achieving a perfect score on the 7/24 Spatial Recall Test (Month 24): 75.0 (42/56) % | 7/24 Spatial Recall Test, Estimated perfect score rate (95% CI) (logistic regression for repeated measurement, adjusted for age, education level, baseline recall): 69.8 (63.4, 75.5) %
